pIC50: −log10 of the molar value.
Target: T1, BACE2 (Homo sapiens, UniProt Q9Y5Z0)
T1 construct: BACE2 enzyme ectodomain (derived from plasmid “pET17b-T7-hu proBACE2”) was prepared as described in Ostermann et al; T7 tag (N); made in house
T1 sequence (Q9Y5Z0 21-473 limits assumed): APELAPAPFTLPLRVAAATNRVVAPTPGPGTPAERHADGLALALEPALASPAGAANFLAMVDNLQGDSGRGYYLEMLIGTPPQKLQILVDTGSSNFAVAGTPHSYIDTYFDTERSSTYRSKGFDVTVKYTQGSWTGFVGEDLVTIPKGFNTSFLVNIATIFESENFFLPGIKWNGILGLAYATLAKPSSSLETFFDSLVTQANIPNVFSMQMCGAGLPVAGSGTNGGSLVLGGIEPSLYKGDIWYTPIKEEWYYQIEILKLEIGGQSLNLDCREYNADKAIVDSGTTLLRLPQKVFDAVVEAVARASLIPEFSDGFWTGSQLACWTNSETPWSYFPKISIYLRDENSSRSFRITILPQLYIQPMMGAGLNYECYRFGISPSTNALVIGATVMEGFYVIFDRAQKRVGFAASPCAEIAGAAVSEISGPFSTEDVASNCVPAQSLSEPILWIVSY
Assay: Fluorescent-peptide cleavage assay for BACE2 inhibition
Format: biochemical
Conditions: BACE2 enzyme ectodomain, fluorescent peptide WS EVNLD AEFRC-MR121, assay buffer pH 4.5, room temperature
Protocol: Fluorescent-Peptide Cleavage Assay for BACE2 Inhibition
The pro-enzyme was stored at 4° C. at a concentration of 70 μg/ml.
A fluorescent peptide with the amino acid sequence WS EVNLD AEFRC-MR121 was synthesised and a stock solution of 1.5 mM in DMSO prepared and stored at −20° C. MR121 is a fluorophore with an excitation wavelength of 630 nm and emission wavelength of 695 nm. The MR121 fluorescence is quenched by the N-terminal tryptophan until the peptide is cleaved by BACE2.
Assays were all made in a Corning 384-well black polystyrene non-binding surface microtitre plate with clear flat bottom and using a Plate:Vision (Perkin Elmer) fluorescence reader. To perform the assay an 80 nM solution of BACE2 was prepared in assay buffer (assay buffer is 100 mM Na-acetate; 20 mM EDTA; 0.05% BSA; pH 4.5) and incubated at room temperature for 1 hour to activate the enzyme. 39 μl of the activated BACE2 was placed in each assay well, followed by 1 μl compound to be tested at an appropriate concentration in 100% DMSO. The plate was then mixed and incubated for 10 minutes at room temperature.
The assay readout is the rate of change of fluorescence intensity giving a relative measure of BACE2 activity. Small values correspond to high inhibition and larger values to low inhibition. […] IC50 values were determined using these assay values generated for a range of inhibitor concentrations and the curve fitting software XLfit (IDBS) using the Sigmoidal Dose-Response Model.

Row | pIC50 | SMILES
1 | 7.82 | CCN1C(=O)C[C@@](C)(c2cccc(NC(=O)c3ccc(Cl)cn3)c2)N=C1N [Example 49, 5-Chloro-pyridine-2-carboxylic acid [3-((S)-2-amino-1-ethyl-4-methyl-6-oxo-1,4,5,6-tetrahydro-pyrimidin-4-yl)-phenyl]amide]
2 | 7.22 | CN1C(=O)C[C@@](C)(c2cccc(NC(=O)c3ncc(Cl)cc3Cl)c2)N=C1N [Example 64, 3,5-Dichloro-pyridine-2-carboxylic acid [3-((S)-2-amino-1,4-dimethyl-6-oxo-1,4,5,6-tetrahydro-pyrimidin-4-yl)-phenyl]-amide]
3 | 7.48 | C[C@@]1(c2cccc(NC(=O)c3ccc(Cl)cn3)c2)CC(=O)NC(N)=N1 [Example 51, 5-Chloro-pyridine-2-carboxylic acid [3-((S)-2-amino-4-methyl-6-oxo-1,4,5,6-tetrahydro-pyrimidin-4-yl)-phenyl]amide]
4 | 6.25 | CN1C(=O)C(C)(C)[C@@](C)(c2cc(NC(=O)c3nc(Cl)ccc3C(F)(F)F)ccc2F)N=C1N [Example 119, 6-Chloro-3-trifluoromethyl-pyridine-2-carboxylic acid [3-((S)-2-amino-1,4,5,5-tetramethyl-6-oxo-1,4,5,6-tetrahydro-pyrimidin-4-yl)-4-fluoro-phenyl]amide]
5 | 7.37 | CN1C(=O)C(C)(C)[C@@](C)(c2cc(NC(=O)c3ccccn3)ccc2F)N=C1N [Example 100, Pyridine-2-carboxylic acid [3-((S)-2-amino-1,4,5,5-tetramethyl-6-oxo-1,4,5,6-tetrahydro-pyrimidin-4-yl)-4-fluoro-phenyl]amide]
6 | 7.32 | CN1C(=O)C[C@@](C)(c2cccc(NC(=O)c3cc(Cl)ccn3)c2)N=C1N [Example 29, 4-Chloro-pyridine-2-carboxylic acid [3-((S)-2-amino-1,4-dimethyl-6-oxo-1,4,5,6-tetrahydro-pyrimidin-4-yl)-phenyl]-amide]
7 | 8.15 | CN1C(=O)C[C@@](C)(c2cccc(NC(=O)c3ccc(Cl)cn3)c2)N=C1N [Example 10, 5-Chloro-pyridine-2-carboxylic acid [3-((S)-2-amino-1,4-dimethyl-6-oxo-1,4,5,6-tetrahydro-pyrimidin-4-yl)-phenyl]amide]
8 | 5.96 | CN1C(=O)C[C@@](C)(c2cccc(NC(=O)c3cccnc3)c2)N=C1N [Example 33, N-[3-((S)-2-Amino-1,4-dimethyl-6-oxo-1,4,5,6-tetrahydro-pyrimidin-4-yl)-phenyl]-nicotinamide]
9 | 6.91 | Cc1cnc(C(=O)Nc2cccc([C@]3(C)CC(=O)N(C)C(N)=N3)c2)cn1 [Example 22, 5-Methyl-pyrazine-2-carboxylic acid [3-((S)-2-amino-1,4-dimethyl-6-oxo-1,4,5,6-tetrahydro-pyrimidin-4-yl)-phenyl]amide]
10 | 8.00 | CN1C(=O)C(OCc2ccccc2)[C@@](C)(c2cc(NC(=O)c3ccc(Cl)cn3)ccc2F)N=C1N (stereo partly drawn) [Example 122, 5-Chloro-pyridine-2-carboxylic acid [3-((R)-2-amino-5-benzyloxy-1,4-dimethyl-6-oxo-1,4,5,6-tetrahydro-pyrimidin-4-yl)-4-fluoro-phenyl]amide]
11 | 7.37 | CN1C(=O)C(C)(C)[C@@](C)(c2cc(NC(=O)c3ccc(F)cn3)ccc2F)N=C1N [Example 114, 5-Fluoro-pyridine-2-carboxylic acid [3-((S)-2-amino-1,4,5,5-tetramethyl-6-oxo-1,4,5,6-tetrahydro-pyrimidin-4-yl)-4-fluoro-phenyl]amide]
12 | 8.05 | CN1C(=N)N[C@](C)(c2cc(NC(=O)c3ccc(C(F)(F)F)cn3)ccc2F)CC1=O [Example 48, 5-Trifluoromethyl-pyridine-2-carboxylic acid [3-((S)-2-amino-1,4-dimethyl-6-oxo-1,4,5,6-tetrahydro-pyrimidin-4-yl)-4-fluoro-phenyl]amide]
13 | 6.74 | CN1C(=O)C(C)(C)[C@@](C)(c2cccc(NC(=O)c3ncccc3-c3ccccc3Cl)c2)N=C1N [Example 97, 3-(2-Chloro-phenyl)-pyridine-2-carboxylic acid [3-((R)-2-amino-1,4,5,5-tetramethyl-6-oxo-1,4,5,6-tetrahydro-pyrimidin-4-yl)-phenyl]amide]
14 | 7.60 | CN1C(=O)C(C)(C)[C@@](C)(c2cc(NC(=O)c3ccc(OC(F)F)cn3)ccc2F)N=C1N [Example 103, 5-Difluoromethoxy-pyridine-2-carboxylic acid [3-((S)-2-amino-1,4,5,5-tetramethyl-6-oxo-1,4,5,6-tetrahydro-pyrimidin-4-yl)-4-fluoro-phenyl]amide]
15 | 6.10 | CN1C(=O)C[C@@](C)(c2cccc(NC(=O)c3cc4cccnc4[nH]3)c2)N=C1N [Example 78, 1H-Pyrrolo[2,3-b]pyridine-2-carboxylic acid [3-((S)-2-amino-1,4-dimethyl-6-oxo-1,4,5,6-tetrahydro-pyrimidin-4-yl)-phenyl]-amide]
16 | 6.77 | CN1C(=O)C[C@@](C)(c2cccc(NC(=O)c3ccon3)c2)N=C1N [Example 81, Isoxazole-3-carboxylic acid [3-((S)-2-amino-1,4-dimethyl-6-oxo-1,4,5,6-tetrahydro-pyrimidin-4-yl)-phenyl]-amide]
17 | 6.46 | CCCOc1cccnc1C(=O)Nc1cccc([C@]2(C)CC(=O)N(C)C(N)=N2)c1 [Example 55, 3-Propoxy-pyridine-2-carboxylic acid [3-((S)-2-amino-1,4-dimethyl-6-oxo-1,4,5,6-tetrahydro-pyrimidin-4-yl)-phenyl]-amide]
18 | 5.53 | CN1C(=O)C[C@@](C)(c2cccc(NC(=O)c3nccc4ccccc34)c2)N=C1N [Example 56, Isoquinoline-1-carboxylic acid [3-((S)-2-amino-1,4-dimethyl-6-oxo-1,4,5,6-tetrahydro-pyrimidin-4-yl)-phenyl]-amide]
19 | 7.01 | Cc1nc(C(=O)Nc2cccc([C@]3(C)CC(=O)N(C)C(N)=N3)c2)c(C)o1 [Example 4, 2,5-Dimethyl-oxazole-4-carboxylic acid [3-((S)-2-amino-1,4-dimethyl-6-oxo-1,4,5,6-tetrahydro-pyrimidin-4-yl)-phenyl]amide]
20 | 5.95 | CCC[C@@]1(c2cccc(NC(=O)c3coc(C)n3)c2)CC(=O)N(C)C(N)=N1 [Example 90, 2-Methyl-oxazole-4-carboxylic acid [3-((S)-2-amino-1-methyl-6-oxo-4-propyl-1,4,5,6-tetrahydro-pyrimidin-4-yl)-phenyl]-amide]
21 | 7.10 | CCOc1cc(C(F)(F)F)cnc1C(=O)Nc1cccc([C@]2(C)CC(=O)N(C)C(N)=N2)c1 [Example 74, 3-Ethoxy-5-trifluoromethyl-pyridine-2-carboxylic acid [3-((S)-2-amino-1,4-dimethyl-6-oxo-1,4,5,6-tetrahydro-pyrimidin-4-yl)-phenyl]-amide]
22 | 7.57 | CN1C(=O)C(C)(C)[C@@](C)(c2cc(NC(=O)c3cnc(Cl)cn3)ccc2F)N=C1N [Example 107, 5-Chloro-pyrazine-2-carboxylic acid [3-((S)-2-amino-1,4,5,5-tetramethyl-6-oxo-1,4,5,6-tetrahydro-pyrimidin-4-yl)-4-fluoro-phenyl]amide]
23 | 5.88 | CN1C(=O)C[C@@](C)(c2cccc(NC(=O)c3coc(-c4ccccc4)n3)c2)N=C1N [Example 71, 2-Phenyl-oxazole-4-carboxylic acid [3-((S)-2-amino-1,4-dimethyl-6-oxo-1,4,5,6-tetrahydro-pyrimidin-4-yl)-phenyl]-amide]
24 | 7.28 | Cc1ccc(C(=O)Nc2ccc(F)c([C@@]3(C)N=C(N)N(C)C(=O)C3(C)C)c2)s1 [Example 102, 5-Methyl-thiophene-2-carboxylic acid [3-((S)-2-amino-1,4,5,5-tetramethyl-6-oxo-1,4,5,6-tetrahydro-pyrimidin-4-yl)-4-fluoro-phenyl]amide]
25 | 8.22 | CN1C(=O)C[C@@](C)(c2cccc(NC(=O)c3ncc(Cl)cn3)c2)N=C1N [Example 20, 5-Chloro-pyrimidine-2-carboxylic acid [3-((S)-2-amino-1,4-dimethyl-6-oxo-1,4,5,6-tetrahydro-pyrimidin-4-yl)-phenyl]amide]
26 | 6.34 | CN1C(=O)C[C@@](C)(c2cccc(NC(=O)c3ccc(CO)cn3)c2)N=C1N [Example 16, 5-Hydroxymethyl-pyridine-2-carboxylic acid [3-((S)-2-amino-1,4-dimethyl-6-oxo-1,4,5,6-tetrahydro-pyrimidin-4-yl)-phenyl]amide]

From patent US8461160B2, “Dihydropyrimidinones” (Hoffmann-La Roche, Inc., priority 2009, dated 2013)
